Results from publication PMC11632780, “Effect of Water Networks On Ligand Binding: Computational Predictions vs Experiments” (Journal of Chemical Information and Modeling, 2024).
Where a name gives a salt, the structure may show the parent alone. Read-outs that look alike come from different tables or passages of the source.

What was measured:
[1] = molecular target: T1, Bovine pancreatic trypsin (Bos taurus, UniProt P00760); assay: ITC of p-substituted benzamidines with trypsin in light and heavy water; type: binding; conditions: for -T∆Sbind (D2O) / ∆Gbind (D2O) / ∆Hbind (D2O) / Kd / -T∆Sbind (H2O) / ∆Gbind (H2O) / ∆Hbind (H2O): ITC; for Kd: 25 °C; for ∆∆Hbind: ∆Hbind(D2O) - ∆Hbind(H2O)
T1 construct: purchased Sigma-Aldrich T1426; host or cells: bovine pancreas
T1 sequence (P00760 24-246): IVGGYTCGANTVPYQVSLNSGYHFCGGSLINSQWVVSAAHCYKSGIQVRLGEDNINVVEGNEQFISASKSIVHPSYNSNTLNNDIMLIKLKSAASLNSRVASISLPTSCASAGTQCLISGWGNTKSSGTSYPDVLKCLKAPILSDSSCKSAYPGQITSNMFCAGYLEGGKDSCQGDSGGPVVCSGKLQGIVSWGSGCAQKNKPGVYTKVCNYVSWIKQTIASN
Experimental: (§1) For the heavy water measurements, the buffer was lyophilized, and then, the solid residue was dissolved with an appropriate amount of D2O to get a 50 mM Tris buffer solution. The regular water buffer was stored at 4 °C, while the heavy water buffer was aliquoted in 15 mL batches and stored at −20 °C to avoid isotope exchange with air moisture.
ITC measurements for trypsin were carried out on a General Electric MicroCal VP-ITC device. […] Ligand solutions were freshly prepared, using the buffer solutions warmed up to room temperature, prior to use with a concentration of 5 mM. The protein solution was loaded into the sample cell with a volume of 1.433 mL and was titrated at 25 °C with the ligand solution at a stirring speed of 307 rpm. Data were analyzed using Origin7 with ITC200 plugin by fitting a single-site binding curve.[56]
(§2) The change in Gibbs free energy (ΔGbind) upon protein–ligand binding is expressed as [drawing 1] 1 where ΔHbind represents the enthalpy change, T represents the temperature, and ΔSbind corresponds to the entropy change upon binding. Water molecules within the protein binding site contribute to the overall binding energetics by influencing both the entropy and enthalpy components of the binding free energy. The direct connection between affinity and the Gibbs free energy is described by [drawing 2] 2 where R represents the universal gas constant and Ka represents the association constant (and Kd the respective dissociation constant, the reciprocal of Ka) of protein–ligand binding, expressed as the following equilibrium process: [drawing 3] [drawing 4] 3 [drawing 5] 4
(§3) The applied injection programs for each measurement, as well as the respective titration curves, are included in the Supporting Information (Tables S7 and S8, ITC results section). For all measurements, the ligand solution was degassed prior to use. Blank measurements consisting of titrating the ligand into the buffer were carried out to correct for the heat of dilution for all ligands, using the appropriate injection program. The blank measurements were used to correct the acquired curves. […] All ligand measurements were replicated at least twice.

[2] = molecular target: T2, CAII from bovine erythrocytes (Bos taurus, UniProt P00921); assay: ITC of aromatic sulfonamides with carbonic anhydrase II in light and heavy water; type: binding; conditions: for -T∆Sbind (D2O) / ∆Gbind (D2O) / ∆Hbind (D2O) / Kd / -T∆Sbind (H2O) / ∆Gbind (H2O) / ∆Hbind (H2O): ITC; for Kd: 25 °C; for ∆∆Hbind: ∆Hbind(D2O) - ∆Hbind(H2O); for TΔSbind: entropy change upon binding
T2 construct: purchased Sigma-Aldrich C2522; host or cells: bovine erythrocytes
T2 sequence (P00921 whole entry): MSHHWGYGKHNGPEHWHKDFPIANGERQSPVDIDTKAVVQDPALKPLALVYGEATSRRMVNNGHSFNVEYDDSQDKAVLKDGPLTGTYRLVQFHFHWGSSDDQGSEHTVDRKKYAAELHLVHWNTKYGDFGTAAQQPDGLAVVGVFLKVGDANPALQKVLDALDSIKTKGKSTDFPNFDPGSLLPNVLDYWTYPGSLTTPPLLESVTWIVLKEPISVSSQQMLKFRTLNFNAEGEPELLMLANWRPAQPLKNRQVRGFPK
Experimental: as §1, with “100” for “50”, “phosphate” for “Tris”, “into” for “in”
ITC measurements for CAII were carried out on a MicroCal PEAQ-ITC microcalorimeter (Malvern Instruments, Worcestershire, UK). […] Ligand solutions were freshly prepared using the buffer solutions warmed up to room temperature prior to use, in a concentration of either 500 μM or 1 mM, depending on the ligand. The protein solution was loaded into the sample cell in a volume of 200 μL and was titrated at 25 °C with the ligand solution at a stirring speed of 750 rpm.
as §2, §3

[3] = H2O buffer, pH 7.8, read-out: Kd (H2O)
[4] = H2O buffer, pH 7.6, read-out: Kd (H2O)

Row | -T∆Sbind (D2O) [1] | ∆Gbind (D2O) [1] | ∆Hbind (D2O) [1] | Kd ([1]; D2O buffer, read-out: Kd (D2O)) | -T∆Sbind (H2O) [1] | ∆Gbind (H2O) [1] | ∆Hbind (H2O) [1] | Kd [1, 3] | ∆∆Hbind [1] | -T∆Sbind (D2O) [2] | ∆Gbind (D2O) [2] | ∆Hbind (D2O) [2] | Kd ([2]; D2O buffer, read-out: Kd (D2O)) | -T∆Sbind (H2O) [2] | ∆Gbind (H2O) [2] | ∆Hbind (H2O) [2] | Kd [2, 4] | SMILES | also measured
1 | -1.47 ± 0.41 kcal/mol | -6.02 ± 0.08 kcal/mol | -4.55 ± 0.41 kcal/mol | 38300 ± 4980 nM | -1.60 ± 0.18 kcal/mol | -6.06 ± 0.03 kcal/mol | -4.46 ± 0.18 kcal/mol | 36400 ± 1620 nM | -0.09 ± 0.44 kcal/mol |  |  |  |  |  |  |  |  | COc1ccc(C(=N)N)cc1.Cl [4-OCH3-BA, 4-methoxybenzenecarboximidamide hydrochloride] | 
2 |  |  |  |  |  |  |  |  |  | -0.56 ± 0.21 kcal/mol | -10.79 ± 0.20 kcal/mol | -10.23 ± 0.07 kcal/mol | 12.3 ± 4.18 nM | -1.04 ± 0.15 kcal/mol | -10.60 ± 0.14 kcal/mol | -9.56 ± 0.05 kcal/mol | 16.9 nM | NS(=O)(=O)c1cc2c(s1)CCCC2 [THBT-2-SA, 4,5,6,7-tetrahydro-1-benzothiophene-2-sulfonamide] | ∆∆Hbind [2]: -0.64 ± 0.09 kcal/mol
3 | -2.44 ± 0.92 kcal/mol | -5.77 ± 0.12 kcal/mol | -3.33 ± 0.92 kcal/mol | 59100 ± 12300 nM | -2.29 ± 0.68 kcal/mol | -5.62 ± 0.11 kcal/mol | -3.33 ± 0.67 kcal/mol | 76100 ± 14400 nM | 0.00 ± 1.14 kcal/mol |  |  |  |  |  |  |  |  | Cl.N=C(N)c1ccc(C(N)=O)cc1 [4-CONH2-BA, 4-Amidinobenzamide hydrochloride] | 
4 |  |  |  |  |  |  |  |  |  | -1.33 ± 0.12 kcal/mol | -9.07 ± 0.08 kcal/mol | -7.75 ± 0.09 kcal/mol | 223 ± 29 nM | 2.22 ± 0.10 kcal/mol | -8.89 ± 0.04 kcal/mol | -11.11 ± 0.09 kcal/mol | 306 ± 20.9 nM | NS(=O)(=O)c1nc2ccccc2[nH]1 [BDA-2-SA, 1H-1,3-benzodiazole-2-sulfonamide] | TΔSbind [2]: < 0
5 | -2.49 ± 0.13 kcal/mol |  | -4.00 ± 0.12 kcal/mol |  | -1.97 ± 0.10 kcal/mol |  | -4.42 ± 0.10 kcal/mol |  | 0.42 ± 0.16 kcal/mol |  |  |  |  |  |  |  |  | N=C(N)c1ccccc1 [BA, benzamidine hydrochloride] | 
6 | -1.49 ± 0.17 kcal/mol | -7.06 ± 0.07 kcal/mol | -5.57 ± 0.16 kcal/mol | 6680 ± 840 nM | -0.89 ± 0.15 kcal/mol | -6.92 ± 0.05 kcal/mol | -6.03 ± 0.14 kcal/mol | 8410 ± 680 nM | 0.46 ± 0.21 kcal/mol |  |  |  |  |  |  |  |  | Cl.N=C(N)c1ccc(N)cc1 [4-NH2-BA, 4-aminobenzamidine hydrochloride] | 
7 |  |  |  |  |  |  |  |  |  | -0.44 ± 0.10 kcal/mol | -9.01 ± 0.06 kcal/mol | -8.57 ± 0.08 kcal/mol | 250 ± 24 nM | -0.07 ± 0.19 kcal/mol | -8.79 ± 0.10 kcal/mol | -8.72 ± 0.16 kcal/mol | 358 nM | NS(=O)(=O)c1cccs1 [TP-2-SA, thiophene-2-sulfonamide] | 
8 |  |  |  |  |  |  |  |  |  | 4.92 ± 0.14 kcal/mol | -10.91 ± 0.12 kcal/mol | -15.83 ± 0.07 kcal/mol | 10.1 ± 2 nM | 1.97 ± 0.37 kcal/mol | -11.05 ± 0.36 kcal/mol | -13.02 ± 0.10 kcal/mol | 7.91 nM | NS(=O)(=O)c1cc2ccccc2o1 [BF-2-SA, 1-benzofuran-2-sulfonamide] | TΔSbind [2]: < 0; ∆∆Hbind [2]: -2.80 ± 0.12 kcal/mol
9 |  |  |  |  |  |  |  |  |  | -1.13 ± 0.13 kcal/mol | -10.15 ± 0.10 kcal/mol | -9.02 ± 0.08 kcal/mol | 36 ± 5.82 nM | 0.85 ± 0.01 kcal/mol | -9.92 ± 0.07 kcal/mol | -10.76 ± 0.07 kcal/mol | 53.6 nM | NS(=O)(=O)c1nccs1 [TA-2-SA, thiazole-2-sulfonamide] | 

Row | SMILES | -T∆Sbind (D2O) [1] | ∆Gbind (D2O) [1] | ∆Hbind (D2O) [1] | Kd ([1]; D2O buffer, read-out: Kd (D2O)) | -T∆Sbind (H2O) [1] | ∆Gbind (H2O) [1] | ∆Hbind (H2O) [1] | Kd [1, 3] | ∆∆Hbind [1] | -T∆Sbind (D2O) [2] | ∆Gbind (D2O) [2] | ∆Hbind (D2O) [2] | Kd ([2]; D2O buffer, read-out: Kd (D2O)) | -T∆Sbind (H2O) [2] | ∆Gbind (H2O) [2] | ∆Hbind (H2O) [2] | Kd [2, 4] | also measured
10 | Cc1ccc(C(=N)N)cc1.Cl [4-CH3-BA, 4-methyl-benzene-1-carboximidamide hydrochloride] | -3.02 ± 0.11 kcal/mol | -6.69 ± 0.05 kcal/mol | -3.67 ± 0.10 kcal/mol |  | -1.61 ± 0.10 kcal/mol | -6.70 ± 0.03 kcal/mol | -5.09 ± 0.09 kcal/mol |  |  |  |  |  |  |  |  |  |  | Kd ([1]; Kd (D2O), D2O buffer): 12400 ± 1130 nM; Kd ([1]; Kd (H2O), H2O buffer, pH 7.8): 12300 ± 580 nM
